The values below come from patent US10292986B2, “Methods for treating epithelian mesenchymal transition related diseases” (THE BOARD OF REGENTS OF THE UNIVERSITY OF TEXAS SYSTEM, priority 2015, dated 2019).

Data set [1] has as its system hSAECs. Nature of the data set: TGFβ-induced type II EMT in hSAECs, confocal immunofluorescence microscopy. In kind it is cell-based, human. Here is the method: (§1) hSAECs culture and induction of the EMT transformation. An immortalized human small airway epithelial cell (hSAEC) line established by infecting primary hSAECs with human telomerase (hTERT) and cyclin-dependent kinase (CDK)-4 retrovirus constructs was obtained from John Minna, UTSW (Ramirez et al., 2004, Cancer. Res. 64:9027-34). The immortalized hSAECs were grown in SAGM small airway epithelial cell growth medium (Lonza, Walkersville, MD) in a humidified 5% CO2 atmosphere. For induction of the EMT, hSAECs were TGFIβ-stimulated for 15 d (10 ng/ml, PeproTech, Rocky Hill, NJ). The small-molecule IKK inhibitor BMS345541 was purchased from Sigma Aldrich and used at 10 μM (Burke et al., 2003, J. Biol. Chem. 278:1450-56).
Immunostaining and Confocal Immunofluorescence Microscopy. hSAECs were incubated±TGFβ (10 ng/mL) for 15 days, re-plated on glass cover slips pretreated with rat tail collagen (Roche Applied Sciences), and fixed with 4% paraformaldehyde in PBS. Afterwards, the fixed cells were stained with Alexa Fluor® 568 phalloidin (Life Technologies) for cytoplasmic distribution of F-actin and also counterstained with 4′, 6-diamidino-2-phenylindole (DAPI) for nuclear staining. The cells were visualized with a Nikon fluorescence confocal microscope at a magnification of 63×.
For immunofluorescence staining, hSAECs were plated on rat tail collagen-treated cover glasses and stimulated for the indicated times. The cells were fixed with 4% paraformaldehyde in PBS and incubated with 0.1 m ammonium chloride for 10 min. Cells were permeabilized with 0.5% Triton-100, followed by incubation in blocking buffer (5% goat serum, 0.1% IGEPAL CA-630, 0.05% NaN3, and 1% BSA) and incubated with anti-SNAIL1, anti-E-Cadherin, and anti-vimentin antibodies (Abs; Abcam, Santa Cruz, Calif.) incubation buffer (0.1% IGEPAL CA-630, 0.05% NaN3, and 2% BSA) overnight at 4 ° C. After washing, cells were stained with Alexa Fluor 488-conjugated goat anti-rabbit IgG (Life Technologies) in incubation buffer for 1 h, then visualized with a Nikon fluorescence confocal microscope, magnification 63×.

The test system of data set [2] is hSAECs. Nature of the data set: TGFβ-induced EMT gene expression in hSAECs by Q-RT-PCR. In kind it is cell-based, human. Here is the method: as §1
(§2) Quantitative real-time reverse transcription-PCR (Q-RT-PCR). Total RNA was extracted using acid guanidinium phenol extraction (Tri Reagent; Sigma). For gene expression analyses, 1 μg of RNA was reverse-transcribed using SuperScript III in a 20-μl reaction mixture. The rest of the procedures were as described previously (Brasier et al., 2011, J. Virol. 85:11752-69). The forward and reverse gene-specific Q-RT-PCR primers are listed in Table 1; relative changes in gene expression were quantified using the ΔΔCT method.

Data set [3] deals with 5′ NFκB site of SNAI1, ZEB1, IL-6, and VIM promoters. Nature of the data set: XChIP / Q-gPCR recruitment of transcriptional elongation complex to EMT gene promoters in hSAECs. The class given is cell-based, human. Here is the method:
Dual cross-link chromatin immunoprecipitation (XChIP). […] Protein-protein cross-linking was first performed with disuccinimidyl glutarate (2mM, Pierce), followed by protein-DNA cross-linking with formaldehyde. […] Immunoprecipitates were collected with 40 μL protein A magnetic beads (Dynal Inc.), washed, and eluted in 250 μL elution buffer for 15 min at room temperature. Samples were de-cross-linked in 0.2 M NaCl at 65 ° C. for 2 h. The precipitated DNA was phenol/chloroform-extracted, precipitated with 100% ethanol, and dried.
Quantitative real time genomic PCR (Q-gPCR). Gene enrichment in XChIP was determined by Q-gPCR using region-specific PCR primers (Table 2). Standard curves were generated using a dilution series of genomic DNA (from 1 ng to 100 ng) for each primer pair. The fold change of DNA in each immunoprecipitate was determined by normalizing the absolute amount to the input DNA reference and calculating the fold change relative to that amount in unstimulated cells.

The test system of data set [4] is C57BL6/J mice. Nature of the data set: TGFβ-induced pulmonary fibrosis in mice, histology and Ashcroft scoring. In kind it is in vivo. As to the method:
(§3) TGFβ-induced pulmonary fibrosis in mice. Male C57BL6/J mice aged 15 weeks were purchased from The Jackson Laboratory (Bar Harbor, Me.) and housed under pathogen-free conditions with food and water ad libitum. Mice were given multiple challenges with 1 μg/mouse of TGFβ every other day for a total of 15 TGFβ treatments. Meanwhile, mice were pre-treated with or without JQ1 (50 mg/kg body weight, i.p.) before TGFβ administration. Ten days after the last TGFβ treatment, bronchoalveolar lavages were obtained for quantifying innate immune cells and measuring cytokine and chemokine secretion; the mice were sacrificed and lung tissues taken for RNA extraction and fixed for histological examination. Whole lungs were inflated under 25 cm H2O pressure with 10% (v/v) neutral buffered formalin through the tracheal cannula and immersed in formalin for at least 24 hours. After being processed into paraffin blocks, the lungs were cut into 5-μm sections and stained either with Masson Trichrome or H&E to assess fibrotic changes in the lungs.
Assessment of levels of pulmonary fibrosis. Pulmonary fibrosis was graded using the Ashcroft scoring method as described (Hubner et al., 2008, Biotechniques. 44:507). In brief, to determine the fibrosis histopathology score for the lung of each mouse, the entire left and right longitudinal lung sections were scored separately (score range, 0 to 9) at ×100 magnification, and the scores were combined (total score range, 0 to 18). […] were intermediate grades assigned on the basis of the predominant histology changes if features described for two distinct grades (as described) were present in the section, to account for the progressive nature of the fibrotic lesion.

The subject of data set [5] is C57BL6/J mice. Nature of the data set: TGFβ-induced pulmonary fibrosis in mice, lung Q-RT-PCR of fibrotic program. The class given is in vivo. As to conditions: JQ1 i.p., repetitive TGFβ stimulation. Here is the method:
as §2
as §3, with “After being processed into paraffin blocks, the lungs were cut into 5-μm sections and stained either with Masson Trichrome or H&E to assess fibrotic changes in the lungs.” left out

Data set [6] deals with T1, Brd4 (Homo sapiens, UniProt O60885). As to conditions: cited from earlier work.
For a further data set, the system named is GFP-Brd4. The note with it: cited from earlier work.
The target in data set [7] is T1, Brd4. The note with it: chronic treatment; cited from earlier work.
For data set [8] the following is noted: cited from earlier work.
The mark [9] stands for this setting: JQ1 10 μM, TGFβ 10 ng/mL 15 d, hSAECs.
[10] abbreviates: JQ1 10 μM, TGFβ 10 ng/mL, 15 d time course.
The mark [11] stands for this setting: JQ1 i.p. (100 mg/kg in FIG. 11 legend, 50 mg/kg in methods), repetitive intranasal TGFβ 1 μg/mouse.
The mark [12] stands for this setting: ± BMS-345541 10 μM, TGFβ 0 or 15 d.

Regarding `Cc1sc2c(c1C)C(c1ccc(Cl)cc1)=NC(CC(=O)OC(C)(C)C)c1nnc(C)n1-2` (centres unmarked) [JQ1], in the data set with hSAECs [1] (JQ1 10 μM ± TGFβ 10 ng/mL 15 days, FIG. 9A), the “the EMT (Type II EMT)” value is given as “blocks”. In addition, in the data set on hSAECs [1] (setting [9]), the “TGFβ-induced acquisition of elongated shape” value is “blocked”; the “TGFβ-induced stress fiber formation” value is “blocked”; the “TGFβ-induced upregulation and cytosolic redistribution of SNAI1” value is given as “blocked”; the “TGFβ-induced upregulation and cytosolic redistribution of VIM” value was “blocked”. Further, the “expression and cellular distribution of CDH1” value in the data set with hSAECs [1] (setting [9]) is “maintained”. Further, in the data set with hSAECs [2] (BRD4 inhibitor JQ1, hSAECs), the “TGFβ-induced enhanced mesenchymal gene expression” value was “significantly inhibited”. For the same compound, the “TGFβ-induced EMT gene expression in hSAECs” value with hSAECs [2] (JQ1 10 μM ± TGFβ 10 ng/mL 15 d, FIG. 9B) is listed as “blocks”. Moreover, in the data set with hSAECs [2] (JQ1 10 μM, TGFβ 10 ng/mL, 15 d, not to levels seen in normal hSAECs), the “CDH1 expression (mRNA)” value was “partially maintained”. In the data set on hSAECs [2] (setting [10]), the “TGFβ-induced expression of FN1 mRNA” value is given as “significantly blocked”, the “TGFβ-induced expression of IL-6 mRNA” value is “significantly blocked”, the “TGFβ-induced expression of SNAI1 mRNA” value was “significantly blocked” and the “TGFβ-induced expression of VIM mRNA” value is “significantly blocked”. Besides, the “TGFβ-induced expression of ZEB1 mRNA” value in the data set with hSAECs [2] (setting [10]) is “significantly blocked”. Moreover, in data set [3] (± JQ1, TGFβ 0 or 15 days), the “CDK9 recruitment to SNAI1” value was “significantly disrupted”, the “RelA recruitment to SNAI1” value is “significantly disrupted”, the “TGFβ-induced recruitment of BRD4 to the 5′NFκB site of SNAI1” value is listed as “significantly attenuated” and the “phospho-Ser 2 CTD RNA Pol II recruitment to SNAI1” value was “significantly disrupted”. In the data set with C57BL6/J mice [4] (setting [11]), the TGFβ-induced airway fibrosis entry was “effectively blocked” and the “lung histology (Masson Trichrome)” value is listed as “histologically normal”. Besides, the “combined Ashcroft score” value in the data set with C57BL6/J mice [4] (JQ1 mice with chronic TGFβ treatment vs chronic TGFβ alone (score 8), total score range 0 to 18) is listed as “significantly lower”. The “TGFβ-induced pulmonary fibrotic program (mSNAI1, mFN-1, mαSMA, mCol1A1, mIL-6 mRNA in lung)” value with C57BL6/J mice [5] is “significantly inhibited”. Further, the “recruitment and binding of Brd4 to TNFα and E-selectin promoter elements” value on Brd4 [6] is given as “inhibits”. In the data set on GFP-Brd4, the “recovery time in FRAP assays using GFP-Brd4” value is recorded as “accelerates”. The “atherogenic responses and atherosclerosis” value on Brd4 [7] is on record as “attenuates”.
Regarding `Cc1ccc2nc(NCCN)c3ncc(C)n3c2c1` [BMS-345541], in the data set on hSAECs [2] (IKK kinase inhibitor BMS-345541, hSAECs), the “TGFβ-induced enhanced mesenchymal gene expression” value is “inhibited”. Besides, in [3] (setting [12]), the “BRD4 recruitment to EMT gene promoters (SNAI1, ZEB1, IL-6, VIM)” value is “inhibited”; the “CDK9 recruitment to EMT gene promoters (SNAI1, ZEB1, IL-6, VIM)” value is “inhibited”; the “RelA recruitment to EMT gene promoters (SNAI1, ZEB1, IL-6, VIM)” value is given as “inhibited”; the “phospho-Ser 2 CTD RNA Pol II recruitment to EMT gene promoters (SNAI1, ZEB1, IL-6, VIM)” value was “inhibited”.
Regarding `CCC(=O)O[C@]1(C(=O)SCF)[C@H](C)C[C@H]2[C@@H]3C[C@H](F)C4=CC(=O)C=C[C@]4(C)[C@@]3(F)[C@@H](O)C[C@@]21C` [Fluticasone propionate], the “solubility in 95% ethanol” value in data set [8] (95% ethanol) is given as “slightly soluble”. For the same compound, in [8] (dimethyl sulfoxide), the “solubility in dimethyl sulfoxide” value is given as “freely soluble”. Also, the solubility in dimethylformamide result in data set [8] (dimethylformamide) is recorded as “freely soluble”. In addition, in [8] (methanol), the solubility in methanol entry is reported as “slightly soluble”. The solubility in water entry in [8] (water) is “practically insoluble”.
